Measurements reported in patent publication US20030229132A1, “Small molecule modulators of apoptosis” (priority 2002, published 2003).

B1: Fas Ligand: induces apoptosis which proceeds through the caspase-8 pathway (protein, UniProt P48023 130-281, looked up)
Tumor necrosis factor ligand …: QIGHPSPPPEKKELRKVAHLTGKSNSRSMPLEWEDTYGIVLLSGVKYKKGGLVINETGLYFVYSKVYFRGQSCNNLPLSHKVYMRNSKYPQDLVMMEGKMMSYCTTGQMWARSSYLGAVFNLTSADHLYVNVSELSLVNFEESQTFFGLYKL

Key:
Jurkat cells [1] = assay: DNA fragmentation analysis in Jurkat cells; assay type: cell-based, human; details: 50 μM compound or 1 μM staurosporin, 8 hr
[2] = tested on: caspase-3 (DEVDase activity); assay: DEVDase fluorescence screen in HeLa cell S-100 cytoplasmic extracts; assay type: biochemical; details: in vitro fluorescence assay, HeLa S-100 extracts with cyto c
Source text: In order to identify compounds that modulate apoptosis, a chemical genetics approach was utilized to screen for molecules that target components of the apoptosis pathway (see, T. U. Mayer et al., Science 286, 971-4 (1999)). An in vitro screen using cytoplasmic extracts was adapted for apoptosis to a 96-well format and used to test an in-house library of ˜3500 compounds (see, T. Fernandes-Alnemri et al, Proc Natl Acad Sci USA 93, 7464-9 (1996); X. Liu, C. N. Kim, J. Yang, R. Jemmerson, X. Wang, Cell 86, 147-57 (1996); L. M. Leoni et al., Proc Natl Acad Sci USA 95, 9567-71 (1998)). Briefly, individual compounds were added to HeLa cell S-100 cytoplasmic extracts at a final concentration of 1 mM and apoptosis was induced by adding bovine heart cyto c (HeLa cell cytoplasmic extracts were prepared according to previously published reports (see, P. Li et al., Cell 91, 479-89 (1997)). Compounds were distributed into 96-well microtiter plates at a final concentration of 1 mM. To each well was added 250 μg of total protein from cytoplasmic extracts in HEB buffer (50 mM Hepes pH 7.4, 50 mM KCl, 5 mM EGTA, 2 mM MgCl), with 2 mM DTT, 2 μM cyto c, and 0.5 μM DEVD-AFC substrate in a total of 150 μL. Plates were incubated at 37° C. and fluorescence was read in a LJL Biosystems plate reader at 10 min intervals). Activation of caspase-3 was monitored by cleavage of a fluorogenic substrate, Asp-Glu-Val-Asp-7-amino-4-trifluoromethylcoumarin (DEVDase activity). As designed, the DEVDase fluorescence screen encompasses the release of cyto c from the mitochondria to the activation of caspase-3. Possible targets include cyto c, Apaf-1, caspase-9, caspase-3, inhibitors of apoptosis (IAPs), and possible unidentified components present in the cytosol.

Jurkat cells [3] = assay: Caspase-3 activation in Jurkat cells (immunoblot); assay type: cell-based, human; details: 50 μM compound or 1 μM staurosporin, 6 hr
Protocol: (§1) (C) DNA fragmentation analysis. […] Cell viability assay.
(§2) Compounds were then tested for their ability to induce apoptosis in live cells. The ability of the compounds to activate caspase-3 in a Jurkat cell line was first assayed. […] This same pattern was seen when we assayed for the cleavage of poly (ADP-ribose) polymerase (PARP), a cellular substrate of caspases-3 and -7 (see, D. W. Nicholson, Cell Death Differ 6, 1028-42 (1999)). Upon apoptosis, PAR-P is cleaved from a 116 kD to an 85 kD protein.

Jurkat cells [4] = assay: PARP cleavage in Jurkat cells (immunoblot); assay type: cell-based, human; details: 50 μM compound or 1 μM staurosporin, 6 hr
Protocol: as §1, §2

CCRF-CEM = assay: Cell viability, CCRF-CEM; assay type: cell-based, human; details: leukemia
Source text: (§3) Samples were then probed by immunoblot for (A) caspase-3 activation or (B) cleavage of PARP. (C) DNA fragmentation analysis. […] The DNA was isolated by phenol/chloroform extraction, separated on a 2% agarose gel and visualized by ethidium bromide staining. Cell viability assay.
(§4) Normal cell lines include peripheral blood lymphocytes (PBL) isolated from donated human blood, non-transformed mammary fibroblasts (MCF-10A), human mammary epithelial cells (HMEC), human umbilical vein endothelial cells (HUVEC), and human prostate epithelial cells (PREC). Transformed cell lines include cell lines from leukemia, breast, lung, ovarian, and epidermal cancers (Table 1).

NCI-H23 = assay: Cell viability, NCI-H23; assay type: cell-based, human; details: NCI-H23, lung
[5] = tested on: peripheral blood lymphocytes (PBL); assay: Cell viability, PBL; assay type: cell-based, human; details: normal cell
Source text: as §3, §4

[6] = tested on: Normal (PBL) and cancer (Jurkat, Molt-4, CCRF-CEM) lymphocyte cell lines; assay: Cell viability, normal and cancer lymphocyte cell lines compared; details: all four lymphocyte cell lines, normal and cancerous
Source text: as §3, §4

procaspase-3 processing = assay: Procaspase-3 processing by capture ELISA in HeLa cell extract (cyto c / compound titration); assay type: biochemical; details: cyto c titrated into HeLa cell extract, no compound; read-out: concentration for half-maximal activation (AC50) of procaspase-3 processing
Protocol: FIG. 2 depicts activity of compounds 1-5 in cell lysates. (A) Compound activation is cyto c dependent. Cyto c was titrated into S-100 cytoplasmic extracts with vehicle alone or 20 μM compound and procaspase-3 processing was assayed by capture ELISA. (B) Compound activation is dose-dependent. Compounds or vehicle were titrated into S-100 cytoplasmic extracts at a cyto c concentration of 1.25 μM and procaspases-3 processing was assayed by capture ELISA. (C) Immunoblot assay of compound-induced caspase activation. Samples at the 20 μM compound concentration in (B) were separated on SDS-polyacrylamide gel and transferred to polyvinyl membrane. […]
In order to determine if these compounds required cyto c for caspase-3 activation, cyto c was titrated into HeLa cell extract in the presence and absence of compounds and procaspase-3 processing was monitored by capture ELISA (Cyto c was titrated into lysates as detailed in the screening procedure. Capture ELISA assay for active caspase-3 was adapted from Aragones et al., www.biocarta.com. Briefly, a mouse monoclonal antibody recognizing both full-length and cleaved caspase-3 (capture antibody, Transduction Laboratories) was immobilized onto an immunosorp plate and blocked with 5% milk, and 25 μL of the caspase activation reaction in 75 μL Superblock (Pierce) was added. […]

[7] = tested on: Jurkat cells transfected with Apaf-1 siRNA; assay: Viability of Jurkat cells transfected with Apaf-1 siRNA (MTT test); assay type: cell-based, human; details: 20 nM Apaf-1 siRNA 48 hr, then 24 hr incubation
Protocol: (A) Jurkat cells were transfected with 20 nM Apaf-1 siRNA for 48 hr and half the cells were lysed and probed with antibodies to Apaf-1, caspase-9, and caspase-3. The other half of the cells was incubated with varying concentrations of (B), compound 2 or (C), Fas ligand for 24 hr and assayed for viability by MTT test. (D) SK-OV-3 cells were transiently transfected with Apaf-1 or vector control for 24 hr and then incubated with vary concentrations of compound 2 and assayed for viability. (E) Cyto c was titrated into SK-OV-3 cell lysate in the presence of 300 μM dATP, with or without 150 nM purified Apaf-1 and 20 μM compound 2 as indicated.
In order to verify that compound 2 targets the apoptosome as a function of its cytotoxic activity, small interfering RNA (siRNA) was used to silence the expression of Apaf-1 in Jurkat cells. Sense and anti-sense oligonucleotides corresponding to nucleotides 978-998 of Apaf-1 (([…]) as reported by Lassus et al. Science 297, 1352-4. (2002)), were purchased from Dharmacon. Transfection of siRNA into Jurkat cells was accomplished using GeneSilencer (Gene Therapy Systems) according to manufacturer's instructions. There was a significant decrease in the level of expression of Apaf-1 48 hr after transfection of an Apaf-1 specific siRNA, without affecting the expression of caspases in the pathway (FIG. 5A).

| Molecule | DNA fragmentation (Jurkat cells [1]) | activation of DEVDase activity [2] | processing of procaspase-3 (Jurkat cells [3]) | cleavage of PARP (Jurkat cells [4]) | other results |
| --- | --- | --- | --- | --- | --- |
| CCOC(=O)NCc1ccc(Cl)c(Cl)c1 [Compound 1] | less pronounced effect | most active | no processing | – | – |
| O=C1Cc2ccccc2N1Cc1ccc(Cl)c(Cl)c1 [Compound 3] | induced DNA fragmentation | strongly activated DEVDase activity | significant processing | limited processing | – |
| CN[C@@H]1C[C@H]2O[C@@](C)([C@@H]1OC)n1c3ccccc3c3c4c(c5c6ccccc6n2c5c31)C(=O)NC4 [Staurosporin, reference compound] | “laddering” effect | – | significant processing | complete cleavage | IC50 (CCRF-CEM): 69 nM; IC50 (NCI-H23): 85 nM; IC50 [5]: 69 nM; susceptibility to cytotoxicity [6]: equally susceptible |
| cyto c: bovine heart cyto c added to cytoplasmic extracts to induce apoptosis | – | – | – | – | AC50 (procaspase-3 processing): ~1750 nM |
| B1 | – | – | – | – | cell killing after silencing of Apaf-1 [7]: still sensitive |
